Experiments:
[1] = biological target: Rev responsive element (RRE) RNA; assay: Dissociation constant of compound with Rev-responsive element (RRE) IIB RNA was determined by the competition assay; format: nucleic-acid assay
[2] = tested on: Rev responsive element (RRE) RNA; assay: Ratio of the dissociation constant between Rev37-50 and the PNA-peptide; format: nucleic-acid assay

| Compound | Kd [1] | Ratio [2] |
| --- | --- | --- |
| C[C@H](NC(=O)CN(CCNC(=O)CN(CCNC(=O)CCC(=O)O)C(=O)Cn1cnc2c(N)ncnc21)C(=O)Cn1ccc(N)nc1=O)C(=O)N[C@@H](CCCNC(=N)N)C(=O)N[C@@H](CCCNC(=N)N)C(=O)N[C@@H](CC(N)=O)C(=O)N[C@@H](CCCNC(=N)N)C(=O)N[C@@H](CCCNC(=N)N)C(=O)N[C@@H](CCCNC(=N)N)C(=O)N[C@@H](CCCNC(=N)N)C(=O)N[C@@H](Cc1c[nH]c2ccccc12)C(=O)N[C@@H](CCCNC(=N)N)C(=O)N[C@@H](CCC(=O)O)C(=O)N[C@@H](CCCNC(=N)N)C(=O)N[C@@H](CCC(N)=O)C(=O)N[C@H](CCCNC(=N)N)C(N)=O | 28 nM | 3.1 |
| C[C@H](NC(=O)CN(CCNC(=O)CN(CCNC(=O)CCC(=O)O)C(=O)Cn1ccc(N)nc1=O)C(=O)Cn1ccc(N)nc1=O)C(=O)N[C@@H](CCCNC(=N)N)C(=O)N[C@@H](CCCNC(=N)N)C(=O)N[C@@H](CC(N)=O)C(=O)N[C@@H](CCCNC(=N)N)C(=O)N[C@@H](CCCNC(=N)N)C(=O)N[C@@H](CCCNC(=N)N)C(=O)N[C@@H](CCCNC(=N)N)C(=O)N[C@@H](Cc1c[nH]c2ccccc12)C(=O)N[C@@H](CCCNC(=N)N)C(=O)N[C@@H](CCC(=O)O)C(=O)N[C@@H](CCCNC(=N)N)C(=O)N[C@@H](CCC(N)=O)C(=O)N[C@H](CCCNC(=N)N)C(N)=O | 28 nM | 3.1 |
